In ChEMBL document CHEMBL1201862, “PubChem BioAssay data set” (2004):
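Following 48 hours of exposure in 96-well plates, responses at five concentrations were used to interpolate endpoints linearly. Abbreviation: GI50, concentration required for 50% inhibition of growth.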 Active and inactive are the calls of the source. Rule as the data show it: active = GI50 up to about 1.1 µM and inactive = higher.

Assays:
Assay in all cases: NCI tumour cell line growth inhibition, 48 h
UACC-257 = system: UACC-257
OVCAR-3 = system: OVCAR-3
ACHN = system: ACHN
UACC-62 = system: UACC-62
HCC 2998 = system: HCC 2998
HL-60 = system: HL-60
KM12 = system: KM12
SNB-75 = system: SNB-75
HOP-62 = system: HOP-62
SF-268 = system: SF-268
EKVX = system: EKVX
SF-539 = system: SF-539
CCRF-CEM = system: CCRF-CEM
SR = system: SR
Malme-3M = system: Malme-3M
NCI-H460 = system: NCI-H460
RXF 393 = system: RXF 393
MDA-MB-435 = system: MDA-MB-435
Hs-578T = system: Hs-578T

Measured: GI50

CC(=O)OCC1=C(COC(C)=O)C(=O)c2c(O)ccc(O)c2C1=O
inactive: UACC-257 5.14 µM | OVCAR-3 7.1 µM | ACHN 10.2 µM | UACC-62 5.56 µM | HCC 2998 15.9 µM | HL-60 1.49 µM | KM12 13.3 µM | SNB-75 16.1 µM | HOP-62 21 µM | SF-268 13.8 µM | EKVX 15.1 µM | SF-539 6.34 µM | CCRF-CEM 2.45 µM | SR 5.47 µM | Malme-3M 4.28 µM

Cc1nc2ccccc2c(=O)n1/N=C(\N=N\c1cc(Cl)ccc1Cl)c1ccc(N(C)C)cc1
inactive: NCI-H460 45.7 µM | ACHN 71.8 µM | UACC-62 34.5 µM | HL-60 22.9 µM | HOP-62 26.9 µM | SF-268 41.5 µM | EKVX 45.3 µM | SF-539 33 µM | CCRF-CEM 52.7 µM | RXF 393 27.2 µM

CN(C)C(=S)/N=c1\ss/c(=N\S(=O)(=O)c2ccccc2)n1-c1ccccc1
inactive: UACC-257 16.9 µM | OVCAR-3 6.4 µM | ACHN 24.2 µM | HCC 2998 38.8 µM | HL-60 4.33 µM | SNB-75 > 100 µM | HOP-62 22.9 µM | SF-268 38.9 µM | EKVX 59.6 µM | SF-539 19.7 µM | RXF 393 57.5 µM | Malme-3M 30.1 µM
active: UACC-62 0.297 µM | KM12 0.217 µM | CCRF-CEM 0.333 µM

O=C1C(c2ccc(C3=[N+]([O-])c4cc([N+](=O)[O-])ccc4C3=O)cc2)=[N+]([O-])c2cc([N+](=O)[O-])ccc21
inactive: NCI-H460 > 10 µM | UACC-257 > 10 µM | OVCAR-3 > 10 µM | ACHN > 10 µM | UACC-62 > 10 µM | HCC 2998 > 10 µM | HL-60 > 10 µM | KM12 > 10 µM | SNB-75 36.2 µM | HOP-62 66.7 µM | EKVX > 10 µM | SF-539 > 10 µM | CCRF-CEM > 10 µM | RXF 393 > 10 µM | Malme-3M > 10 µM

COc1ccc(C2C(N)=NCC2c2ccccn2)cc1 (stereo not given)
inactive: NCI-H460 > 100 µM | UACC-257 > 100 µM | OVCAR-3 > 100 µM | ACHN > 100 µM | UACC-62 > 100 µM | HCC 2998 > 100 µM | KM12 > 100 µM | SNB-75 > 100 µM | HOP-62 > 100 µM | SF-268 > 100 µM | EKVX > 100 µM | SF-539 > 100 µM | CCRF-CEM > 100 µM | RXF 393 > 100 µM | SR > 100 µM | Malme-3M > 100 µM

C=CCN1CN(c2ccccc2)C2(CCN(CCCC3(c4ccc(F)cc4)OCCO3)CC2)C1=O
inactive: UACC-257 18.3 µM | OVCAR-3 14.4 µM | ACHN 18.7 µM | UACC-62 18.7 µM | HCC 2998 19.7 µM | HL-60 13.7 µM | KM12 15.8 µM | SNB-75 15.3 µM | HOP-62 21.1 µM | SF-268 18.7 µM | EKVX 15.1 µM | SF-539 10.9 µM | CCRF-CEM 13.3 µM | RXF 393 14.8 µM | SR 12.1 µM | Malme-3M 16.5 µM

O=C(O)c1ccc(C2C(=O)N[C@@H]3CCC[C@H]23)cc1 (stereo not given in full)
inactive: NCI-H460 > 100 µM | UACC-257 > 100 µM | OVCAR-3 > 100 µM | UACC-62 > 100 µM | HCC 2998 > 100 µM | HL-60 > 100 µM | KM12 > 100 µM | SNB-75 > 100 µM | HOP-62 > 100 µM | SF-268 > 100 µM | EKVX > 100 µM | SF-539 > 100 µM | CCRF-CEM > 100 µM | RXF 393 > 100 µM | Malme-3M > 100 µM

CC12CC3(C)CC(C)(C1)CC(N=[N+]=[N-])(C2)C3
inactive: NCI-H460 > 100 µM | UACC-257 > 100 µM | OVCAR-3 > 100 µM | ACHN > 100 µM | UACC-62 > 100 µM | HCC 2998 > 100 µM | KM12 > 100 µM | SNB-75 > 100 µM | HOP-62 > 100 µM | SF-268 > 100 µM | EKVX > 100 µM | SF-539 > 100 µM | CCRF-CEM > 100 µM | RXF 393 > 100 µM | SR > 100 µM | Malme-3M > 100 µM

CC(=O)OCC1OC(n2cc(F)c(=O)[nH]c2=O)C(N)C(OC(C)=O)C1OC(C)=O (stereo not given)
inactive: NCI-H460 > 100 µM | UACC-257 > 100 µM | OVCAR-3 > 100 µM | UACC-62 > 100 µM | HCC 2998 > 100 µM | HL-60 > 100 µM | KM12 > 100 µM | SNB-75 > 100 µM | HOP-62 > 100 µM | SF-268 > 100 µM | EKVX > 100 µM | SF-539 > 100 µM | CCRF-CEM > 100 µM | RXF 393 > 100 µM | Malme-3M > 100 µM

OCc1nnn2c1CCC2
inactive: NCI-H460 > 100 µM | UACC-257 > 100 µM | OVCAR-3 > 100 µM | ACHN > 100 µM | UACC-62 > 100 µM | HCC 2998 > 100 µM | HL-60 > 100 µM | KM12 > 100 µM | SNB-75 > 100 µM | HOP-62 > 100 µM | EKVX > 100 µM | SF-539 > 100 µM | CCRF-CEM > 100 µM | RXF 393 > 100 µM | SR > 100 µM | Malme-3M > 100 µM

COC(=O)C(C(=O)C(=O)Nc1ccccc1C(C)=O)c1nc2ccc(Cl)cc2nc1O (stereo not given)
inactive: NCI-H460 > 100 µM | UACC-257 > 100 µM | OVCAR-3 > 100 µM | ACHN > 100 µM | UACC-62 > 100 µM | HCC 2998 > 100 µM | HL-60 > 100 µM | KM12 > 100 µM | SNB-75 99.5 µM | HOP-62 > 100 µM | SF-268 > 100 µM | EKVX 56.9 µM | SF-539 > 100 µM | CCRF-CEM > 100 µM | RXF 393 89.7 µM | Malme-3M > 100 µM

CC1=NN(C(=O)c2ccc(Cl)cc2)C(=O)C1/N=N/c1ccc(S(=O)(=O)Nc2ncccn2)cc1 (stereo not given)
inactive: NCI-H460 > 100 µM | MDA-MB-435 > 100 µM | UACC-257 > 100 µM | OVCAR-3 > 100 µM | Hs-578T > 100 µM | ACHN > 100 µM | UACC-62 > 100 µM | HL-60 > 100 µM | KM12 > 100 µM | SNB-75 > 100 µM | HOP-62 > 100 µM | SF-268 > 100 µM | EKVX > 100 µM | SF-539 > 100 µM | RXF 393 > 100 µM | SR > 100 µM | Malme-3M > 100 µM

COc1ccc(CC/N=C2\CCC(C(=O)NCCc3ccc(OC)c(OC)c3)N2)cc1OC (stereo not given)
inactive: NCI-H460 > 100 µM | UACC-257 > 100 µM | OVCAR-3 > 100 µM | ACHN > 100 µM | UACC-62 > 100 µM | HCC 2998 > 100 µM | HL-60 > 100 µM | KM12 > 100 µM | SNB-75 > 100 µM | HOP-62 > 100 µM | SF-268 > 100 µM | EKVX > 100 µM | CCRF-CEM > 100 µM | Malme-3M > 100 µM

Cc1[nH]c(=O)[nH]c(=O)c1/C=C/C(=O)NC(CO)C[S+]([O-])C[S+](C)[O-] (stereo not given)
inactive: NCI-H460 16.6 µM | UACC-257 21.8 µM | OVCAR-3 7.87 µM | UACC-62 12.5 µM | HCC 2998 9.62 µM | HL-60 16.7 µM | KM12 18.4 µM | SNB-75 7.18 µM | HOP-62 16.6 µM | SF-268 4.17 µM | EKVX 16.4 µM | SF-539 13.9 µM | CCRF-CEM 14.6 µM | RXF 393 20.8 µM | Malme-3M 12.2 µM

O=C1CSc2sc(=S)sc2S1
inactive: NCI-H460 > 100 µM | UACC-257 > 100 µM | OVCAR-3 > 100 µM | UACC-62 > 100 µM | HCC 2998 > 80.2 µM | HL-60 > 61.5 µM | KM12 > 100 µM | SNB-75 > 100 µM | HOP-62 > 100 µM | SF-268 > 100 µM | EKVX > 100 µM | SF-539 > 100 µM | CCRF-CEM > 76.4 µM | RXF 393 43.1 µM | Malme-3M > 100 µM

Oc1nc(-c2ccccc2)cc(-c2ccccc2O)n1
inactive: NCI-H460 87.5 µM | UACC-257 > 100 µM | OVCAR-3 98.2 µM | ACHN 67.6 µM | UACC-62 77.3 µM | HCC 2998 > 100 µM | HL-60 79.1 µM | KM12 > 100 µM | SNB-75 43.9 µM | HOP-62 30.5 µM | SF-268 > 100 µM | EKVX 6.71 µM | SF-539 > 100 µM | CCRF-CEM > 100 µM | RXF 393 86.5 µM | SR > 100 µM | Malme-3M > 100 µM

S=c1sc2cscc2s1
inactive: NCI-H460 24.1 µM | UACC-257 22.3 µM | OVCAR-3 19.5 µM | ACHN 19.4 µM | UACC-62 18.2 µM | HCC 2998 18.7 µM | HL-60 28.1 µM | KM12 17.6 µM | SNB-75 16.7 µM | HOP-62 32.8 µM | SF-268 31.4 µM | EKVX 19.5 µM | SF-539 23 µM | CCRF-CEM 22 µM | RXF 393 35.2 µM | SR 27.8 µM | Malme-3M 12.6 µM
